Conditions: fasted subjects, 100 mg CBD equivalent by mouth, 1 hour post ingestion
Experimental: Fasted subjects were administered either a single cannabidiol capsule (100 mg cannabidiol) or two cannabidiol/cyclodextrin capsules (total 100 mg cannabidiol equivalent) by mouth. The capsules were taken with a standard glass of water. Capillary blood was drawn one hour after ingestion and the quantity of cannabidiol and cannabidiol metabolites in blood analysed by a certified laboratory.

C=C(C)[C@@H]1CCC(C)=C[C@H]1c1c(O)cc(CCCCC)cc1O [Plain CBD, cannabidiol]
Concentration of CBD in capillary blood: 11.52 ng/mL
Concentration of CBD-COOH in capillary blood: 13.14 ng/mL
Concentration of CBD-OH in capillary blood: 1.85 ng/mL
Concentration, Total (CBD and metabolites) in capillary blood: 26.77 ng/mL

Reference: US20260248949A1, “COMPOSITION AND METHOD” (Optimus Salvus Limited, priority 2022, published 2026)
